Consider 20 compounds from patent publication US9346809B2 (LEO PHARMA A/S, priority 2009, dated 2016).

Common to all, as to format: biochemical
Test [1] has as its target T1, JAK1 (aa 850-1154, catalytic domain, GST-tag) (Homo sapiens, UniProt P23458).
T1 construct: JAK1 (aa 850-1154) and TYK2 (aa 871-1187) are expressed with an N-terminally fused GST-tag; GST (N); purchased Carna Biosciences, Inc; host or cells: baculovirus expression system
In words: JAK kinase assay (HTRF, phosphorylation of TK substrate-biotin), JAK1. Particulars: HTRF assay, ATP at Km (7 μM); read-out: JAK1 kinase inhibitory activity (EC50 indicator). In short, it runs like this:
(§1)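 Per reaction, 5 ng JAK1, 0.1 ng JAK2, 0.3 ng JAK3 or 0.8 ng TYK2 (baculovirus-expressed catalytic domains) acted on 1 μM TK substrate-biotin at Km ATP for 20-30 min, RT. Phosphorylation measured by HTRF.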
A general note: Time-resolved FRET reads energy transfer from a long-lived donor to a nearby acceptor.

Test [2] addresses T2, JAK2 (catalytic domain, His-tag) (Homo sapiens, UniProt O60674).
T2 construct: All four purified enzymes contain only the catalytic domain; His (N); purchased Carna Biosciences, Inc; host or cells: baculovirus expression system
Put plainly: JAK kinase assay (HTRF, phosphorylation of TK substrate-biotin), JAK2. Particulars: HTRF assay, ATP at Km (4 μM); read-out: JAK2 kinase inhibitory activity (EC50 indicator). The gist of the method:
as §1

For test [3], the target named is T3, JAK3 (catalytic domain, His-tag) (Homo sapiens, UniProt P52333).
T3 construct: All four purified enzymes contain only the catalytic domain; His (N); purchased Carna Biosciences, Inc; host or cells: baculovirus expression system
In words: JAK kinase assay (HTRF, phosphorylation of TK substrate-biotin), JAK3. The note with it: HTRF assay, ATP at Km (2 μM); read-out: JAK3 kinase inhibitory activity (EC50 indicator). The gist of the method: as §1

Test [4] addresses T4, TYK2 (aa 871-1187, catalytic domain, GST-tag) (Homo sapiens, UniProt P29597).
T4 construct: JAK1 (aa 850-1154) and TYK2 (aa 871-1187) are expressed with an N-terminally fused GST-tag; GST (N); purchased Carna Biosciences, Inc; host or cells: baculovirus expression system
T4 sequence (P29597 871-1187): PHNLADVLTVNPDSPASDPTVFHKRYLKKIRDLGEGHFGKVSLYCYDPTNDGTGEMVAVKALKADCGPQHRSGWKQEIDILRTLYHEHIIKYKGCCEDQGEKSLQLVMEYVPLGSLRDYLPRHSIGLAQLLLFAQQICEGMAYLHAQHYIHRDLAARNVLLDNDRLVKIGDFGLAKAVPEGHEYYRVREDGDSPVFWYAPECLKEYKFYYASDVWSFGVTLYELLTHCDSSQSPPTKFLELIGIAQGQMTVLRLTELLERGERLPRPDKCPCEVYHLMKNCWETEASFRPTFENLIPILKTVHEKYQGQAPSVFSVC
In words: JAK kinase assay (HTRF, phosphorylation of TK substrate-biotin), TYK2. Particulars: HTRF assay, ATP at Km (13 μM); read-out: TYK2 kinase inhibitory activity (EC50 indicator). The gist of the method:
as §1

Each structure is given as a SMILES string.

T1 sequence (P23458 850-1154): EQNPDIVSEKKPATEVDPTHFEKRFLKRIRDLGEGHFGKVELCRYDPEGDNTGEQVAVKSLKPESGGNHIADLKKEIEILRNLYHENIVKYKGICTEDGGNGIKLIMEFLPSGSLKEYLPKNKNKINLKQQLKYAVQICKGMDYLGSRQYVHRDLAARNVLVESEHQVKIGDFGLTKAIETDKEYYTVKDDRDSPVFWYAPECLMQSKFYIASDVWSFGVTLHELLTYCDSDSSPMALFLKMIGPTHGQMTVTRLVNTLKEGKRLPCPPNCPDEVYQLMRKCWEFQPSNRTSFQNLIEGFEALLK
T2 sequence (O60674 849-1124 limits assumed): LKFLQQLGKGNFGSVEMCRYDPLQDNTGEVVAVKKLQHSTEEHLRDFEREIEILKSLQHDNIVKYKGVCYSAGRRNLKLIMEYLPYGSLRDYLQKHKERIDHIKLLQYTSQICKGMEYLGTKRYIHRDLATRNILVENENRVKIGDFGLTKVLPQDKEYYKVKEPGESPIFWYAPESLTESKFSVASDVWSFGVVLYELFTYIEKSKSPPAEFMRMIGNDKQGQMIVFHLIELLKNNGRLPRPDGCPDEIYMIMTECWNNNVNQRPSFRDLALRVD
T3 sequence (P52333 822-1111 limits assumed): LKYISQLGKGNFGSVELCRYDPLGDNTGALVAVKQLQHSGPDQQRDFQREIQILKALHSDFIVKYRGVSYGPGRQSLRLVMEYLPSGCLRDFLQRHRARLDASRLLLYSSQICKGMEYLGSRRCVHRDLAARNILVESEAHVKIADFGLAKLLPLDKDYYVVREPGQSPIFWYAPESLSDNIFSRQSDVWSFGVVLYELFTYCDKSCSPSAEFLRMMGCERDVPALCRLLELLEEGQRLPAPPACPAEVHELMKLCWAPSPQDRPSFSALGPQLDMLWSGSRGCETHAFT

The term EC50 denotes the concentration giving half of the maximal effect. With `COc1cc(C(=O)N2CCN(c3ncnc4[nH]ccc34)CC23CC3)ccc1S(N)(=O)=O` [Example 378, 2-Methoxy-4-[7-(7H-pyrrolo[2,3-d]pyrimidin-4-yl)-4,7-diaza-spiro[2.5]octane-4-carbonyl]-benzenesulfonamide], the EC50 in test [1], in test [2], in test [3] and in test [4] was less than 0.1 µM in each case.
In the case of `Cc1cc(S(N)(=O)=O)ccc1C(=O)N1CCN(c2ncnc3[nH]ccc23)CC12CC2` [Example 379, 3-Methyl-4-[7-(7H-pyrrolo[2,3-d]pyrimidin-4-yl)-4,7-diaza-spiro[2.5]octane-4-carbonyl]-benzenesulfonamide], the EC50 in test [1] was less than 0.1 µM; in test [2], less than 0.1 µM; in test [3], less than 0.1 µM; in test [4], 0.1 to 0.5 µM.
As for `Cc1cc(C(=O)N2CCN(c3ncnc4[nH]ccc34)CC23CC3)ccc1S(N)(=O)=O` [Example 380, 2-Methyl-4-[7-(7H-pyrrolo[2,3-d]pyrimidin-4-yl)-4,7-diaza-spiro[2.5]octane-4-carbonyl]-benzenesulfonamide], the EC50 in test [1], in test [2], in test [3] and in test [4] was less than 0.1 µM throughout.
`N#Cc1ccc(C(=O)C(=O)N2CCN(c3ncnc4[nH]ccc34)CC23CC3)cc1` [Example 381, 4-{2-Oxo-2-[7-(7H-pyrrolo[2,3-d]pyrimidin-4-yl)-4,7-diaza-spiro[2.5]oct-4-yl]-acetyl}-benzonitrile]: the EC50 in test [1] was less than 0.1 µM; in test [2], less than 0.1 µM; in test [3], 0.1 to 0.5 µM; in test [4] it was 0.1 to 0.5 µM.
As for `CS(=O)(=O)c1ccc(C(=O)N2CCN(c3ncnc4[nH]ccc34)CC23CC3)c(Cl)c1` [Example 382, (2-Chloro-4-methanesulfonyl-phenyl)-[7-(7H-pyrrolo[2,3-d]pyrimidin-4-yl)-4,7-diaza-spiro[2.5]oct-4-yl]-methanone], the EC50 in test [1] is less than 0.1 µM; in test [2] it was less than 0.1 µM; in test [3], greater than 0.5 µM; in test [4], 0.1 to 0.5 µM.
Regarding `NS(=O)(=O)c1ccc(CCC(=O)N2CCN(c3ncnc4[nH]ccc34)CC23CC3)cc1` [Example 383, 4-{3-Oxo-3-[7-(7H-pyrrolo[2,3-d]pyrimidin-4-yl)-4,7-diaza-spiro[2.5]oct-4-yl]-propyl}-benzenesulfonamide], the EC50 in test [1], in test [2], in test [3] and in test [4] was less than 0.1 µM each time.
On to `COc1cc(C(=O)N2CCN(c3ncnc4[nH]ccc34)CC23CC3)cs1` [Example 384, (5-Methoxy-thiophen-3-yl)-[7-(7H-pyrrolo[2,3-d]pyrimidin-4-yl)-4,7-diaza-spiro[2.5]oct-4-yl]-methanone], for which the EC50 in test [1], in test [2], in test [3] and in test [4] was less than 0.1 µM throughout.
In the case of `O=C(c1cc(O)cs1)N1CCN(c2ncnc3[nH]ccc23)CC12CC2` [Example 385, (4-Hydroxy-thiophen-2-yl)-[7-(7H-pyrrolo[2,3-d]pyrimidin-4-yl)-4,7-diaza-spiro[2.5]oct-4-yl]-methanone], the concentration for a half-maximal effect (EC50) in test [1], in test [2], in test [3] and in test [4] was less than 0.1 µM in each case.
In the case of `COc1csc(C(=O)N2CCN(c3ncnc4[nH]ccc34)CC23CC3)c1` [Example 386, (4-Methoxy-thiophen-2-yl)-[7-(7H-pyrrolo[2,3-d]pyrimidin-4-yl)-4,7-diaza-spiro[2.5]oct-4-yl]-methanone], the EC50 in test [1], in test [2], in test [3] and in test [4] was less than 0.1 µM each time.
As for `O=C(Cc1cc(Br)cs1)N1CCN(c2ncnc3[nH]ccc23)CC12CC2` [Example 387, 2-(4-Bromo-thiophen-2-yl)-1-[7-(7H-pyrrolo[2,3-d]pyrimidin-4-yl)-4,7-diaza-spiro[2.5]oct-4-yl]-ethanone], the EC50 was less than 0.1 µM in test [1], less than 0.1 µM in test [2], less than 0.1 µM in test [3] and 0.1 to 0.5 µM in test [4].
`Cc1ccc(S(N)(=O)=O)cc1C(=O)N1CCN(c2ncnc3[nH]ccc23)CC12CC2` [Example 388, 4-Methyl-3-[7-(7H-pyrrolo[2,3-d]pyrimidin-4-yl)-4,7-diaza-spiro[2.5]octane-4-carbonyl]-benzenesulfonamide]: the 50% effective concentration (EC50) in test [1] is less than 0.1 µM; in test [2], less than 0.1 µM; in test [3], less than 0.1 µM; in test [4] it was greater than 0.5 µM.
As for `COc1cc(S(N)(=O)=O)ccc1C(=O)N1CCN(c2ncnc3[nH]ccc23)CC12CC2` [Example 389, 3-Methoxy-4-[7-(7H-pyrrolo[2,3-d]pyrimidin-4-yl)-4,7-diaza-spiro[2.5]octane-4-carbonyl]-benzenesulfonamide], the EC50 is less than 0.1 µM in test [1], less than 0.1 µM in test [2], less than 0.1 µM in test [3] and 0.1 to 0.5 µM in test [4].
With `COc1cc(C(=O)N2[C@@H]3CC[C@H]2CN(c2ncnc4[nH]ccc24)C3)ccc1S(N)(=O)=O` [Example 390, 2-Methoxy-4-[3-(7H-pyrrolo[2,3-d]pyrimidin-4-yl)-3,8-diaza-bicyclo[3.2.1]octane-8-carbonyl]-benzenesulfonamide], the EC50 in test [1], in test [2], in test [3] and in test [4] was less than 0.1 µM throughout.
On to `Cc1cc(S(N)(=O)=O)ccc1C(=O)N1[C@@H]2CC[C@H]1CN(c1ncnc3[nH]ccc13)C2` [Example 391, 3-Methyl-4-[3-(7H-pyrrolo[2,3-d]pyrimidin-4-yl)-3,8-diaza-bicyclo[3.2.1]octane-8-carbonyl]-benzenesulfonamide], for which the EC50 in test [1] is 0.1 to 0.5 µM; in test [2], 0.1 to 0.5 µM; in test [3] it was 0.1 to 0.5 µM; in test [4], greater than 0.5 µM.
Turning to `Cc1cc(C(=O)N2[C@@H]3CC[C@H]2CN(c2ncnc4[nH]ccc24)C3)ccc1S(N)(=O)=O` [Example 392, 2-Methyl-4-[3-(7H-pyrrolo[2,3-d]pyrimidin-4-yl)-3,8-diaza-bicyclo[3.2.1]octane-8-carbonyl]-benzenesulfonamide], the EC50 in test [1] is less than 0.1 µM; in test [2], less than 0.1 µM; in test [3] it was less than 0.1 µM; in test [4] it was greater than 0.5 µM.
Take `COc1cc(S(N)(=O)=O)ccc1C(=O)N1[C@@H]2CC[C@H]1CN(c1ncnc3[nH]ccc13)C2` [Example 393, 3-Methoxy-4-[3-(7H-pyrrolo[2,3-d]pyrimidin-4-yl)-3,8-diaza-bicyclo[3.2.1]octane-8-carbonyl]-benzenesulfonamide]: the 50% effective concentration (EC50) in test [1] was less than 0.1 µM; in test [2], less than 0.1 µM; in test [3] it was less than 0.1 µM; in test [4], 0.1 to 0.5 µM.
Regarding `O=C(c1ccc(S(=O)(=O)NCC2CCCO2)cc1)N1CCN(c2ncnc3[nH]ccc23)CC12CC2` (centres unmarked) [Example 394, 4-[7-(7H-Pyrrolo[2,3-d]pyrimidin-4-yl)-4,7-diaza-spiro[2.5]octane-4-carbonyl]-N-(tetrahydro-furan-2-ylmethyl)-benzenesulfonamide], the concentration for a half-maximal effect (EC50) in test [1] was less than 0.1 µM; in test [2], less than 0.1 µM; in test [3], 0.1 to 0.5 µM; in test [4], 0.1 to 0.5 µM.
For `N#CCCNS(=O)(=O)c1ccc(C(=O)N2CCN(c3ncnc4[nH]ccc34)CC23CC3)cc1` [Example 395, N-(2-Cyano-ethyl)-4-[7-(7H-pyrrolo[2,3-d]pyrimidin-4-yl)-4,7-diaza-spiro[2.5]octane-4-carbonyl]-benzenesulfonamide], the EC50 in test [1], in test [2], in test [3] and in test [4] was less than 0.1 µM each time.
Take `COCCNS(=O)(=O)c1ccc(C(=O)N2CCN(c3ncnc4[nH]ccc34)CC23CC3)cc1` [Example 396, N-(2-Methoxy-ethyl)-4-[7-(7H-pyrrolo[2,3-d]pyrimidin-4-yl)-4,7-diaza-spiro[2.5]octane-4-carbonyl]-benzenesulfonamide]: the EC50 in test [1] was less than 0.1 µM; in test [2], less than 0.1 µM; in test [3] it was less than 0.1 µM; in test [4] it was 0.1 to 0.5 µM.
On to `O=C(c1ccc(S(=O)(=O)NCCc2cccs2)cc1)N1CCN(c2ncnc3[nH]ccc23)CC12CC2` [Example 397, 4-[7-(7H-Pyrrolo[2,3-d]pyrimidin-4-yl)-4,7-diaza-spiro[2.5]octane-4-carbonyl]-N-(2-thiophen-2-yl-ethyl)-benzenesulfonamide], for which the concentration giving a half-maximal response (EC50) was less than 0.1 µM in test [1], less than 0.1 µM in test [2], 0.1 to 0.5 µM in test [3] and 0.1 to 0.5 µM in test [4].
